Results published in patent US11414424B2, “Cardiac sarcomere inhibitors” (Cytokinetics, Inc., priority 2018, dated 2022).

System: bovine cardiac myofibrils
Assay: Myofibril assay: PK/LDH-coupled steady-state ATPase activity of skinned bovine cardiac myofibrils
Type: biochemical
Details: Ca2+ activating to 75% of maximal rate
In short: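 Steady-state ATPase of detergent-skinned bovine left-ventricular myofibrils (1 mg/mL), PK/LDH-coupled NADH read at 340 nm, in PIPES/MgCl2 buffer pH 6.8 with 50 μM ATP, 0.6 mM EGTA and CaCl2 set for 50% or 75% activation. Inhibition of activity measured.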

Structure (SMILES)	CDMF75 IC15
N#Cc1ccc(N2CCC3(C2)C(=O)N(c2ccc([N+](=O)[O-])cc2)CC(=O)N3Cc2ccc(Cl)cc2)nc1 (stereo not drawn) [Compound 348, 6-(6-(4-chlorobenzyl)-9-(4-nitrophenyl)-7,10-dioxo-2,6,9-triazaspiro[4.5]decan-2-yl)nicotinonitrile]	700 nM
CNC(=O)N1CCC2(C1)C(=O)N(c1ccc([N+](=O)[O-])cc1)CC(=O)N2Cc1ccc(Cl)cc1 (stereo not drawn) [Compound 349, 6-(4-chlorobenzyl)-N-methyl-9-(4-nitrophenyl)-7,10-dioxo-2,6,9-triazaspiro[4.5]decane-2-carboxamide]	900 nM
N#Cc1ccc(N2CC3(C2)C(=O)N(c2ccccc2)CC(=O)N3Cc2ccc(C(F)(F)F)cc2)nc1 [Compound 350, 6-(6,9-dioxo-8-phenyl-5-(4-(trifluoromethyl)benzyl)-2,5,8-triazaspiro[3.5]nonan-2-yl)nicotinonitrile]	5500 nM
CC(C)NC(=O)N1CCC2(C1)C(=O)N(C(C)C)CC(=O)N2Cc1ccc(Cl)cc1 (stereo not drawn) [Compound 383, 6-(4-chlorobenzyl)-N,9-diisopropyl-7,10-dioxo-2,6,9-triazaspiro[4.5]-decane-2-carboxamide]	>39000 nM
CC(C)N1CC(=O)N(Cc2ccc(Cl)cc2)C2(CCN(C(=O)Nc3ccccn3)C2)C1=O (stereo not drawn) [Compound 385, 6-(4-chlorobenzyl)-9-isopropyl-7,10-dioxo-N-(pyridin-2-yl)-2,6,9-triazaspiro[4.5]decane-2-carboxamide]	>39000 nM
COCCNC(=O)N1CCC2(C1)C(=O)N(C(C)C)CC(=O)N2Cc1ccc(Cl)cc1 (stereo not drawn) [Compound 387, 6-(4-chlorobenzyl)-9-isopropyl-N-(2-methoxy-ethyl)-7,10-dioxo-2,6,9-triazaspiro[4.5]decane-2-carboxamide]	>39000 nM
N#Cc1ccc(N2CC(=O)N(Cc3ccc(C(F)(F)F)cc3)[C@]3(C[C@H](c4nnc(C(F)F)o4)C3)C2=O)c(F)c1 [Compound 454B]	100 nM
CNC(=O)[C@H]1C[C@]2(C1)C(=O)N(C(C)C)CC(=O)N2Cc1ccc(C(F)(F)F)cc1 [Compound 498B]	29800 nM

The next lines start with the values.

CDMF75 IC15	Structure (SMILES)
200 nM	CC(C)(C)OC(=O)[C@H]1C[C@]2(C1)C(=O)N(c1ccc(C#N)cc1F)CC(=O)N2Cc1ccc(C(F)(F)F)cc1 [Compound 429B]
500 nM	Cc1noc([C@H]2C[C@]3(C2)C(=O)N(c2ccc(C#N)cc2F)CC(=O)N3Cc2ccc(C(F)(F)F)cc2)n1 [Compound 432B]
300 nM	Cc1cnc(C2CC3(C2)C(=O)N(c2ccc(C#N)cc2F)CC(=O)N3Cc2ccc(C(F)(F)F)cc2)o1 (stereo not drawn) [Compound 436B]
400 nM	Cc1coc([C@H]2C[C@]3(C2)C(=O)N(c2ccc(C#N)cc2F)CC(=O)N3Cc2ccc(C(F)(F)F)cc2)n1 [Compound 442B]
200 nM	N#Cc1ccc(N2CC(=O)N(Cc3ccc(C(F)(F)F)cc3)[C@]3(C[C@H](C(=O)N4CCOCC4)C3)C2=O)c(F)c1 [Compound 444B]
4500 nM	N#Cc1ccc(N2CC(=O)N(Cc3ccc(C(F)(F)F)cc3)[C@]3(C[C@H](C(=O)NC4CC4)C3)C2=O)c(F)c1 [Compound 459, (2r,4r)-8-(4-cyano-2-fluoro-phenyl)-N-cyclopropyl-6,9-dioxo-5-(4-(trifluoromethyl)benzyl)-5,8-diazaspiro[3.5]nonane-2-carboxamide]
400 nM	CNC(=O)N[C@H]1C[C@]2(C1)C(=O)N(c1ccc(C#N)cc1F)CC(=O)N2Cc1ccc(C(F)(F)F)cc1 [Compound 463B]
600 nM	N#Cc1ccc(N2CC(=O)N(Cc3ccc(C(F)(F)F)cc3)[C@]3(C[C@H](CO)C3)C2=O)c(F)c1 [Compound 475B]
2800 nM	CC(C)(O)C1CC2(C1)C(=O)N(c1ccc(C#N)cc1F)CC(=O)N2Cc1ccc(C(F)(F)F)cc1 (stereo not drawn) [Compound 479B]
700 nM	CNC(=O)[C@H]1C[C@]2(C1)C(=O)N(c1ccc(C#N)cc1F)CC(=O)N2Cc1ccc(C(F)(F)F)cc1 [Compound 486B]
